According to patent US11028075B2, “Therapeutic compounds and methods of use thereof” (GENENTECH, INC., priority 2018, dated 2021):
Structures can show the parent of a compound that is named as a salt.

Legend:
hNav1.7 [1] = molecular target: T1, hNav1.7 (Homo sapiens (Human), UniProt Q15858); assay: Electrophysiological assay (EP), voltage clamp on Syncropatch 384PE, CHO cells stably expressing Nav1.7; type: cell-based; settings: holding potential −50 mV, 7.5 min compound incubation, read-out: EP_SP hNav1.7 EVO IC50
Method in brief: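 Whole-cell automated patch clamp was run on CHO cells stably expressing human Nav1.7 cDNA, with internal solution CsCl/EGTA pH 7.2, external solution 80 mM NaCl pH 7.4, and 0.1% Pluronic F-127. From a −50 mV holding potential: −10 mV for 10 ms, −150 mV for 20 ms, then −10 mV for 10 ms, where current was measured. Inhibition was taken after 7.5 min compound incubation, with TTX added for full block.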
Target sequence in this assay (Q15858 other isoform, or with tags, fused parts or gaps): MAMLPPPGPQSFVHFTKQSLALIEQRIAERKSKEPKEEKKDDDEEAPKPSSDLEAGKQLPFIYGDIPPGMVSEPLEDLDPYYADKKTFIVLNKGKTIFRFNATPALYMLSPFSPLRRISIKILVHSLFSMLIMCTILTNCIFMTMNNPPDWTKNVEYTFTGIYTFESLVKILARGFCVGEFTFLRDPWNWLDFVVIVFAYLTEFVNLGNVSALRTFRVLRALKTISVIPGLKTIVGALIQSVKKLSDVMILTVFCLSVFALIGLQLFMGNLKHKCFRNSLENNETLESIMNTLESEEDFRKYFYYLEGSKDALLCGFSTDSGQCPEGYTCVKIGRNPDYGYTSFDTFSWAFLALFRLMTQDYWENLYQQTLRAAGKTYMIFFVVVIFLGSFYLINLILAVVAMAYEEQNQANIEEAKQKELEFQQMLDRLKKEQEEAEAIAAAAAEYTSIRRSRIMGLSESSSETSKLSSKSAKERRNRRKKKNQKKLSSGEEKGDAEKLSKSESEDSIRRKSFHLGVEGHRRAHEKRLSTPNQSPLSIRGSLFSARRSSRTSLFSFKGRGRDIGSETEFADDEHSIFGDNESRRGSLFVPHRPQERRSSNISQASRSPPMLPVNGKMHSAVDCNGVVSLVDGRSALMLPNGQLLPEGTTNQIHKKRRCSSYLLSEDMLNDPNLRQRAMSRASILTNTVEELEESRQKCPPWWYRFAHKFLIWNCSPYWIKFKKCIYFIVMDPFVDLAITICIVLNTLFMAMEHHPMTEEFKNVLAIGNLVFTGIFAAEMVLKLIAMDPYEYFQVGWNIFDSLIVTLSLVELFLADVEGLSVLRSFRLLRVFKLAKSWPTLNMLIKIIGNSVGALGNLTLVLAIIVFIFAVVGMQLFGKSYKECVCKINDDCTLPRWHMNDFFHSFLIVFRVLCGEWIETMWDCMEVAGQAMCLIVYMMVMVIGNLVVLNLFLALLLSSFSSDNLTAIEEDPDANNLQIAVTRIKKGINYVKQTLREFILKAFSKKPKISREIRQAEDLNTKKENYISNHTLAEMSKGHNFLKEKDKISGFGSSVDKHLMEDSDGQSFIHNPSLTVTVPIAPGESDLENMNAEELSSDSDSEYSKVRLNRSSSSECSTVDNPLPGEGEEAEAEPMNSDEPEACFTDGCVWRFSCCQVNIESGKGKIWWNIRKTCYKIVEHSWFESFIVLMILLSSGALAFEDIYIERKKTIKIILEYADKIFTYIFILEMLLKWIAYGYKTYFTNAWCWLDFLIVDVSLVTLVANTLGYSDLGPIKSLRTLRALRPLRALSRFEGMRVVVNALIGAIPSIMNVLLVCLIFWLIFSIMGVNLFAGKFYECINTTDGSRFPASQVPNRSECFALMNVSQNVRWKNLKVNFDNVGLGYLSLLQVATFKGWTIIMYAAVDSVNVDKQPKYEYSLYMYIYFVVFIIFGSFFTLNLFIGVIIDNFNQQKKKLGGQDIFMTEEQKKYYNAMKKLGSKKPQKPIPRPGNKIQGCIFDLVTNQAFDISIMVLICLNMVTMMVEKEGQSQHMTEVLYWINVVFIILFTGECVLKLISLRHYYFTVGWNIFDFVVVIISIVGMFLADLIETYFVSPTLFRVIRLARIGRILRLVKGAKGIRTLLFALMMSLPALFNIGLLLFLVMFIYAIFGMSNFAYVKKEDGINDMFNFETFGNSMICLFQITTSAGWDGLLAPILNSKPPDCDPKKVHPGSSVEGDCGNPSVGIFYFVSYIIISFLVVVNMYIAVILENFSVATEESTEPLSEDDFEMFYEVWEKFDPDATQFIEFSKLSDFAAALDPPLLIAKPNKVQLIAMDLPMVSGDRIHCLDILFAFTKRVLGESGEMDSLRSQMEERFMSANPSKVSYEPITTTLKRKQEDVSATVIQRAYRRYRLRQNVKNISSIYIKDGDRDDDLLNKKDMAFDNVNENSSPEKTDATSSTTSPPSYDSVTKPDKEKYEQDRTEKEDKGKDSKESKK

hNav1.7 [2] = molecular target: T1, hNav1.7; assay: Tritiated compound binding to membranes from cells heterologously expressing hNav1.7 and the β1 subunit (Nav1.7 LBA); settings: competitive binding vs [3H]compound, membranes with hNav1.7 and β1 subunit; read-out: Nav1.7 LBA EVO IC50
Method in brief: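 Membranes from cells expressing hNav1.7 with β1 were incubated at room temperature with a tritiated competitive Nav1.7 inhibitor plus test compound in 100 mM NaCl, 20 mM Tris pH 7.4, 0.01% BSA; nonspecific binding was set with 1 μM unlabeled compound. Incubation was 18 h with […] radioligand, or 3 h with […]. Bound ligand was filtered and counted, and IC50 came from a 4-parameter fit.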
Target sequence in this assay (Q15858 whole entry, looked up): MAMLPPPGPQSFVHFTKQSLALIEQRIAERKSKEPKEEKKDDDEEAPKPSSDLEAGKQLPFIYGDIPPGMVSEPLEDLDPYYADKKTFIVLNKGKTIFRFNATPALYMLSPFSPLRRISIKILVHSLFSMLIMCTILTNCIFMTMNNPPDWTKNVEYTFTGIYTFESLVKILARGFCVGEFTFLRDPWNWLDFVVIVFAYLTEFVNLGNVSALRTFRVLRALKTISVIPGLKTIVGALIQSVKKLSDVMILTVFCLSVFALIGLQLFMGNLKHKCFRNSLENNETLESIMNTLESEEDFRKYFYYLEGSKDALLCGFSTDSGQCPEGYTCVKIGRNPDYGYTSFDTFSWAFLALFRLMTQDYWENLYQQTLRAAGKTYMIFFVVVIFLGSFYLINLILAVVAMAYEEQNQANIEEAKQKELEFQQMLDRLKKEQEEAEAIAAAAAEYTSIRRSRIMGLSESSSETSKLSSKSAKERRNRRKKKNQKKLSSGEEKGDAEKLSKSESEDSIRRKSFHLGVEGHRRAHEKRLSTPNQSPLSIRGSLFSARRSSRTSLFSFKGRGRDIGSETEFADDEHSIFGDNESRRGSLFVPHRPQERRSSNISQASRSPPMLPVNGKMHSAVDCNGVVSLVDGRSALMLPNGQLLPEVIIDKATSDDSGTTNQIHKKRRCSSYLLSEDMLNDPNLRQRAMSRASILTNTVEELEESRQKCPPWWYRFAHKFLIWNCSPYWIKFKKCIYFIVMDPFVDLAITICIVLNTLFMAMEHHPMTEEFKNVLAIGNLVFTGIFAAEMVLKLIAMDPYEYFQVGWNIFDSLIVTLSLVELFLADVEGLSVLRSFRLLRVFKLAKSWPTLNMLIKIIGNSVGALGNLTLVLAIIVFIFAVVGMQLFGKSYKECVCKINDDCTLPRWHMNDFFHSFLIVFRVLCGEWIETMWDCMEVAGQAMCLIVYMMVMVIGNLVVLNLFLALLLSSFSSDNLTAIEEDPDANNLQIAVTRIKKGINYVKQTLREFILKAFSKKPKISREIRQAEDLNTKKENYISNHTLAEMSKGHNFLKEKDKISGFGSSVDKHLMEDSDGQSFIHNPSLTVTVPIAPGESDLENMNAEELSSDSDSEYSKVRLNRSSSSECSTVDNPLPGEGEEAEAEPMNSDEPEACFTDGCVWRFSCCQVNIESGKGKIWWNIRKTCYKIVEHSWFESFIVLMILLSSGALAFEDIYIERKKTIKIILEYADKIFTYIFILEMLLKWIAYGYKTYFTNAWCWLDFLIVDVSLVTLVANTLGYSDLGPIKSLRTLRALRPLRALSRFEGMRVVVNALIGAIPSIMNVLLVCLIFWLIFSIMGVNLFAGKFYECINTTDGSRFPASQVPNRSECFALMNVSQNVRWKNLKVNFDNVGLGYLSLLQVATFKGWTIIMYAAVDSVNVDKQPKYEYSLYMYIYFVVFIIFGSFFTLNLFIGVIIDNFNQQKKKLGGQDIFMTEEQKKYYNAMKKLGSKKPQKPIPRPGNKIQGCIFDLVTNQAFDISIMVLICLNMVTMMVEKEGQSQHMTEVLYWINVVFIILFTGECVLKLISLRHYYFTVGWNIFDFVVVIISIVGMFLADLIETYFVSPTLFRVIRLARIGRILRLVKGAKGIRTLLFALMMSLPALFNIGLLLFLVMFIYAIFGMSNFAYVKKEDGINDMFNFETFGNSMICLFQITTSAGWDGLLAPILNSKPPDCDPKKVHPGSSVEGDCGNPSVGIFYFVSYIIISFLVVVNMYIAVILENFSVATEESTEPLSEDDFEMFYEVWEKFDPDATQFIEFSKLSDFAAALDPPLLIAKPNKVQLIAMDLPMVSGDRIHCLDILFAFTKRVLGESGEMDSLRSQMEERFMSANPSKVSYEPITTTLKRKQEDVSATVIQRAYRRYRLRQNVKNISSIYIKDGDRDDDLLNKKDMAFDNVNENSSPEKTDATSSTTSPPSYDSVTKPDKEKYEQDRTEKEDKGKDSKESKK
Target sequence in this assay (Q07699 whole entry partner, looked up): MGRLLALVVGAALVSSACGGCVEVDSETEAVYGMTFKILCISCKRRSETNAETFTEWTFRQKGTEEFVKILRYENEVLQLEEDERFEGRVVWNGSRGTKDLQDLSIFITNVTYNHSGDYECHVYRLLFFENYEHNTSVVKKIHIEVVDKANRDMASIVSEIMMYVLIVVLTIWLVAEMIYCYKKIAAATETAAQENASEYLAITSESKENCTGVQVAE

Row | SMILES | IC50 (hNav1.7 [1]) | IC50 (hNav1.7 [2])
1 | CN1CC(C(=O)N(C)[C@H]2C[C@@H](c3cccc(C(F)(F)F)c3)CC[C@@H]2Nc2cc(F)c(S(=O)(=O)Nc3ccncn3)cc2Cl)C1 [Example 39, N-((1S,2S,5S)-2-((2-Chloro-5-fluoro-4-(N-(pyrimidin-4-yl)sulfamoyl)phenyl)amino)-5-(3-(trifluoromethyl)phenyl)cyclohexyl)-N,1-dimethylazetidine-3-carboxamide] | 0.83 nM | 2.07 nM
2 | CN(C1CCC1)[C@H]1C[C@@H](c2cccc(C(F)(F)F)c2)CC[C@@H]1Nc1cc(F)c(S(=O)(=O)Nc2ccncn2)cc1F [Example 40, 4-(((1S,2S,4S)-2-(cyclobutyl(methyl)amino)-4-(3-(trifluoromethyl)phenyl)cyclohexyl)amino)-2,5-difluoro-N-(pyrimidin-4-yl)benzenesulfonamide formate] | 0.905 nM | 8.03 nM
3 | CN(CCO)[C@H]1C[C@@H](c2cccc(C(F)(F)F)c2)CC[C@@H]1Nc1cc(F)c(S(=O)(=O)Nc2ccncn2)cc1Cl [Example 41, 5-chloro-2-fluoro-4-(((1S,2S,4S)-2-((2-hydroxyethyl)(methyl)amino)-4-(3-(trifluoromethyl)-phenyl)cyclohexyl)amino)-N-(pyrimidin-4-yl)benzenesulfonamide] | 0.534 nM | 0.623 nM
4 | CN(C1CNC1)[C@H]1C[C@@H](c2cccc(C(F)(F)F)c2)CC[C@@H]1Nc1cc(F)c(S(=O)(=O)Nc2ccncn2)cc1Cl [Example 42, 4-(((1S,2S,4S)-2-(azetidin-3-yl(methyl)amino)-4-(3-(trifluoromethyl)phenyl)cyclohexyl)-amino)-5-chloro-2-fluoro-N-(pyrimidin-4-yl)benzenesulfonamide] | 0.141 nM | 0.657 nM
5 | CN(C)[C@H]1C[C@@H](c2cccc(OC3CC3)c2)CC[C@@H]1Nc1cc(F)c(S(=O)(=O)Nc2ccncn2)cc1Cl [Example 43] | 1.12 nM | 7 nM
6 | CN(C)[C@H]1C[C@@H](c2cccc(C3COC3)c2)CC[C@@H]1Nc1cc(F)c(S(=O)(=O)Nc2ccncn2)cc1Cl [Example 44, 5-chloro-4-(((1S,2S,4S)-2-(dimethylamino)-4-(3-(oxetan-3-yl)phenyl)cyclohexyl)amino)-2-fluoro-N-(pyrimidin-4-yl)benzenesulfonamide] | 9.11 nM | 45.8 nM
7 | CN1CC(N(C)[C@H]2C[C@@H](c3cccc(C(F)(F)F)c3)CC[C@@H]2Nc2cc(F)c(S(=O)(=O)Nc3ccncn3)cc2Cl)C1 [Example 45, 5-chloro-2-fluoro-4-(((1S,2S,4S)-2-(methyl(1-methylazetidin-3-yl)amino)-4-(3-(trifluoromethyl)phenyl)cyclohexyl)amino)-N-(pyrimidin-4-yl)benzenesulfonamide] | 0.241 nM | 0.399 nM
8 | O=S(=O)(Nc1ccncn1)c1cc(O)c(N[C@H]2CC[C@H](c3cccc(C(F)(F)F)c3)C[C@@H]2N2CCCC2)cc1F [Example 46, 2-Fluoro-5-hydroxy-N-(pyrimidin-4-yl)-4-(((1S,2S,4S)-2-(pyrrolidin-1-yl)-4-(3-(trifluoromethyl)-phenyl)cyclohexyl)amino)benzenesulfonamide formate] | 1.9 nM | 24.5 nM
9 | O=S(=O)(Nc1ccncn1)c1cc2c(cc1F)N([C@H]1CC[C@H](c3cccc(C(F)(F)F)c3)C[C@@H]1N1CCCC1)CCO2 [Example 47, 6-Fluoro-N-(pyrimidin-4-yl)-4-((1S,2S,4S)-2-(pyrrolidin-1-yl)-4-(3-(trifluoromethyl)phenyl)-cyclohexyl)-3,4-dihydro-2H-benzo[b][1,4]oxazine-7-sulfonamide] | 1.16 nM | 0.794 nM
10 | CN(C)[C@H]1C[C@@H](c2cccc(C(F)(F)F)c2)CC[C@@H]1Oc1cc(F)c(S(=O)(=O)Nc2ccncn2)cc1F [Example 48, 4-(((1S,2S,4S)-2-(dimethylamino)-4-(3-(trifluoromethyl)phenyl)cyclohexyl)oxy)-2,5-difluoro-N-(pyrimidin-4-yl)benzenesulfonamide formate] | 3.34 nM | 37.7 nM
11 | O=C1COc2cc(S(=O)(=O)Nc3ccncn3)c(F)cc2N1[C@H]1CC[C@H](c2cccc(C(F)(F)F)c2)C[C@@H]1N1CCCC1 [Example 49, 6-Fluoro-3-oxo-N-(pyrimidin-4-yl)-4-((1S,2S,4S)-2-(pyrrolidin-1-yl)-4-(3-(trifluoromethyl)-phenyl)cyclohexyl)-3,4-dihydro-2H-benzo[b][1,4]oxazine-7-sulfonamide] | 2.73 nM | 23.6 nM
12 | O=S(=O)(Nc1ccncn1)c1cc(F)c(N[C@H]2CC[C@H](c3cc(C(F)(F)F)ccc3F)C[C@@H]2N2CCCC2)cc1F [Example 50, 2,5-difluoro-4-(((1S,2S,4S)-4-(2-fluoro-5-(trifluoromethyl)phenyl)-2-(pyrrolidin-1-yl)cyclohexyl)amino)-N-(pyrimidin-4-yl)benzenesulfonamide] | 1.21 nM | 3.88 nM
13 | CN(C)[C@H]1C[C@@H](c2cccc(C(F)(F)F)c2)CC[C@@H]1N(C)c1cc(F)c(S(=O)(=O)Nc2ccncn2)cc1Cl [Example 51, 5-Chloro-4-(((1S,2S,4S)-2-(dimethylamino)-4-(3-(trifluoromethyl)phenyl)cyclohexyl)-(methyl)amino)-2-fluoro-N-(pyrimidin-4-yl)benzenesulfonamide formate] | 4.65 nM | 169 nM
14 | CN(C)[C@H]1C[C@@H](c2cccc(C(F)(F)F)c2)CC[C@@H]1N1CCCc2cc(S(=O)(=O)Nc3ccncn3)c(F)cc21 [Example 54, 1-((1S,2S,4S)-2-(Dimethylamino)-4-(3-(trifluoromethyl)phenyl)cyclohexyl)-7-fluoro-N-(pyrimidin-4-yl)-1,2,3,4-tetrahydroquinoline-6-sulfonamide] | 1.41 nM | 0.604 nM
15 | CN(C)[C@H]1C[C@@H](c2cccc(C(F)(F)F)c2)CC[C@@H]1N1C(=O)CCc2cc(S(=O)(=O)Nc3ccncn3)c(F)cc21 [Example 55, 1-((1S,2S,4S)-2-(Dimethylamino)-4-(3-(trifluoromethyl)phenyl)cyclohexyl)-7-fluoro-2-oxo-N-(pyrimidin-4-yl)-1,2,3,4-tetrahydroquinoline-6-sulfonamide] | 2.68 nM | 6.73 nM
16 | CN(C)[C@H]1C[C@@H](c2cccc(C(F)(F)F)c2)CC[C@@H]1Oc1cc(F)c(S(=O)(=O)Nc2ccncn2)cc1Br [Example 56, 5-Bromo-4-(((1S,2S,4S)-2-(dimethylamino)-4-(3-(trifluoromethyl)phenyl)cyclohexyl)oxy)-2-fluoro-N-(pyrimidin-4-yl)benzenesulfonamide] | 0.528 nM | 1.92 nM
17 | CN(C)[C@H]1C[C@@H](c2cccc(C(F)(F)F)c2)CC[C@@H]1Oc1ccc(S(=O)(=O)Nc2ccncn2)c(F)c1 [Example 57, 4-(((1S,2S,4S)-2-(Dimethylamino)-4-(3-(trifluoromethyl)phenyl)cyclohexyl)oxy)-2-fluoro-N-(pyrimidin-4-yl)benzenesulfonamide formate] | 2.59 nM | 35.3 nM
18 | O=S(=O)(Nc1ccncn1)c1cc(F)c(O[C@H]2CC[C@H](c3cccc(C(F)(F)F)c3)C[C@@H]2N2CCCC2)cc1F [Example 58, 2,5-difluoro-N-(pyrimidin-4-yl)-4-(((1S,2S,4S)-2-(pyrrolidin-1-yl)-4-(3-(trifluoromethyl)-phenyl)cyclohexyl)oxy)benzenesulfonamide] | 2.73 nM | 22.7 nM
19 | CN(C)[C@H]1C[C@@H](c2cccc(OC(F)(F)F)c2)CC[C@@H]1Oc1cc(F)c(S(=O)(=O)Nc2ccncn2)cc1F [Example 59, 4-(((1S,2S,4S)-2-(dimethylamino)-4-(3-(trifluoromethoxy)phenyl)cyclohexyl)oxy)-2,5-difluoro-N-(pyrimidin-4-yl)benzenesulfonamide formate] | 1.62 nM | 32.6 nM
20 | O=S(=O)(Nc1ccncn1)c1cc(Cl)c(O[C@H]2CC[C@H](c3cccc(C(F)(F)F)c3)C[C@@H]2N2CCCC2)cc1F [Example 60, 5-chloro-2-fluoro-N-(pyrimidin-4-yl)-4-(((1S,2S,4S)-2-(pyrrolidin-1-yl)-4-(3-(trifluoromethyl)-phenyl)cyclohexyl)oxy)benzenesulfonamide formate] | 0.745 nM | 1.6 nM
21 | O=S(=O)(Nc1ccncn1)c1cc(F)c(N[C@H]2CC[C@H](c3cccc(OC(F)(F)F)c3)C[C@@H]2N2CCCC2)cc1F [Example 61, 2,5-difluoro-N-(pyrimidin-4-yl)-4-(((1S,2S,4S)-2-(pyrrolidin-1-yl)-4-(3-(trifluoromethoxy)-phenyl)cyclohexyl)amino)benzenesulfonamide formate] | 0.322 nM | 1.54 nM
22 | O=S(=O)(Nc1ccncn1)c1cc(F)c(N[C@H]2CC[C@H](c3cccc(C(F)(F)F)c3)C[C@@H]2N2CCCCC2)cc1F [Example 62, 2,5-difluoro-4-(((1S,2S,4S)-2-(piperidin-1-yl)-4-(3-(trifluoromethyl)phenyl)cyclohexyl)-amino)-N-(pyrimidin-4-yl)benzenesulfonamide formate] | 0.628 nM | 0.816 nM
23 | CN[C@H]1C[C@@H](c2cccc(C(F)(F)F)c2)CC[C@@H]1Oc1cc(F)c(S(=O)(=O)Nc2ccncn2)cc1Cl [Example 63, 5-chloro-2-fluoro-4-(((1S,2S,4S)-2-(methylamino)-4-(3-(trifluoromethyl)phenyl)-cyclohexyl)oxy)-N-(pyrimidin-4-yl)benzenesulfonamide] | 0.709 nM | 11.2 nM
